Experimental data: the supplement of paper PMC10307832

Experiments:
Assay in all cases: relative viability (nuclei count vs DMSO), 5 days (fraction); higher = more cells survive
Ponatinib + Bortezomib = compound: Cc1ccc(C(=O)Nc2ccc(CN3CCN(C)CC3)c(C(F)(F)F)c2)cc1C#Cc1cnc2cccnn12 [Ponatinib] + CC(C)C[C@H](NC(=O)[C@H](Cc1ccccc1)NC(=O)c1cnccn1)B(O)O [Bortezomib] (partner 0.002 µM)
How it was run: (§1)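 Lung cancer cell lines, seeded in 1536-well plates, were treated the following day by pin tool with a single drug or with five library-drug doses (not always all listed) in √10 steps on top of a fixed anchor-drug dose. Cells were fixed and nuclei stained in one step after 5 days, and nuclei were counted. Relative viability is the nuclei count for treated wells divided by that for vehicle wells, reported as medians of duplicate plates.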

Pazopanib + AZD7762 = compound: Cc1ccc(Nc2nccc(N(C)c3ccc4c(C)n(C)nc4c3)n2)cc1S(N)(=O)=O [Pazopanib] + NC(=O)Nc1cc(-c2cccc(F)c2)sc1C(=O)N[C@H]1CCCNC1 [AZD7762] (partner 0.2 µM)
How it was run: as §1

Ponatinib + Vorinostat = compound: Cc1ccc(C(=O)Nc2ccc(CN3CCN(C)CC3)c(C(F)(F)F)c2)cc1C#Cc1cnc2cccnn12 [Ponatinib] + O=C(CCCCCCC(=O)Nc1ccccc1)NO [Vorinostat] (partner 1 µM)
How it was run: as §1

Pazopanib + Phenformin = compound: Cc1ccc(Nc2nccc(N(C)c3ccc4c(C)n(C)nc4c3)n2)cc1S(N)(=O)=O [Pazopanib] + N=C(N)NC(=N)NCCc1ccccc1 [Phenformin] (partner 250 µM)
How it was run: as §1

Row | Cell Line | relative viability (Ponatinib + Bortezomib; first compound 0.002 µM) | relative viability (Ponatinib + Bortezomib; first compound 0.006325 µM) | relative viability (Ponatinib + Bortezomib; first compound 0.06325 µM) | relative viability (Ponatinib + Bortezomib; first compound 0.2 µM) | relative viability (Pazopanib + AZD7762; first compound 0.01 µM) | relative viability (Pazopanib + AZD7762; first compound 0.03162 µM) | relative viability (Pazopanib + AZD7762; first compound 0.1 µM) | relative viability (Pazopanib + AZD7762; first compound 0.3162 µM) | relative viability (Pazopanib + AZD7762; first compound 1 µM) | relative viability (Ponatinib + Vorinostat; first compound 0.002 µM) | relative viability (Ponatinib + Vorinostat; first compound 0.006325 µM) | relative viability (Ponatinib + Vorinostat; first compound 0.06325 µM) | relative viability (Ponatinib + Vorinostat; first compound 0.2 µM) | relative viability (Pazopanib + Phenformin; first compound 0.01 µM) | relative viability (Pazopanib + Phenformin; first compound 0.03162 µM) | relative viability (Pazopanib + Phenformin; first compound 0.1 µM) | relative viability (Pazopanib + Phenformin; first compound 0.3162 µM) | relative viability (Pazopanib + Phenformin; first compound 1 µM)
1 | NCI-H1734 | 0.87 | 0.957 | 0.917 | 0.905 | 0.519 | 0.561 | 0.555 | 0.689 | 0.623 | 0.763 | 0.777 | 0.914 | 0.773 | 0.353 | 0.416 | 0.417 | 0.495 | 0.418
2 | LXF-289 | 0.946 | 0.996 | 1 | 0.98 | 1.26 | 1.15 | 1.12 | 1.11 | 1.06 | 0.646 | 0.746 | 0.732 | 0.793 | 0.563 | 0.554 | 0.507 | 0.533 | 0.525
3 | H3255 | 0.659 | 0.792 | 0.806 | 0.76 | 0.897 | 0.906 | 0.847 | 0.883 | 0.913 | 0.613 | 0.85 | 0.75 | 0.782 | 0.298 | 0.33 | 0.365 | 0.306 | 0.367
4 | 201T | 1.06 | 1.11 | 1.13 | 1.08 | 0.534 | 0.511 | 0.667 | 0.685 | 0.615 | 0.965 | 0.992 | 1.05 | 0.939 | 0.444 | 0.425 | 0.438 | 0.455 | 0.462
5 | NCI-H2126 | 1.08 | 1.13 | 1.16 | 1.13 | 0.963 | 0.947 | 1.07 | 0.959 | 1.04 | 0.784 | 0.777 | 0.988 | 0.789 | 0.489 | 0.521 | 0.537 | 0.53 | 0.587
6 | HOP-62 | 0.728 | 0.571 | 0.597 | 0.701 | 0.739 | 0.589 | 0.527 | 0.528 | 0.478 | 0.516 | 0.509 | 0.682 | 0.597 | 0.654 | 0.627 | 0.734 | 0.673 | 0.665
7 | CAL-12T | 0.634 | 0.9 | 1.39 | 1.09 | 0.594 | 0.579 | 0.527 | 0.568 | 0.652 | 0.958 | 0.666 | 0.864 | 0.876 | 0.595 | 0.616 | 0.544 | 0.664 | 0.581
8 | NCI-H596 | 0.88 | 0.959 | 0.905 | 0.829 | 0.925 | 1.1 | 1.03 | 1.16 | 1.03 | 0.659 | 0.7 | 0.556 | 0.522 |  | 0.916 | 0.732 | 0.879 | 0.963
9 | NCI-H1755 | 0.953 | 0.99 | 0.98 | 1.01 | 0.434 | 0.433 | 0.453 | 0.42 | 0.439 | 0.685 | 0.777 | 0.72 | 0.82 | 0.552 | 0.636 | 0.673 | 0.65 | 0.671
